In this assay the target is T1, RpGSTO1 (Rhopalosiphum padi, UniProt A0A2U9PFG6).
T1 construct: pET-28a His-tag (tag removal not mentioned), E. coli BL21(DE3), BamHI/HindIII
T1 sequence (A0A2U9PFG6 1-239): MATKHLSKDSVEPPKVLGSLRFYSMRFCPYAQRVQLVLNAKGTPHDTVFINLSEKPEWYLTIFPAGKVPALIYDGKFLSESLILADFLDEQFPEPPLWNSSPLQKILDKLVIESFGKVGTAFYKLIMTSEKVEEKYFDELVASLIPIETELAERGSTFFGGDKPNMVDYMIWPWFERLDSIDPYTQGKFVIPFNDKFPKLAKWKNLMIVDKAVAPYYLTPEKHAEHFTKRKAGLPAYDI
Kind of assay: spectrophotometric GSH conjugation at […] nm, double reciprocal plot. Type of assay: biochemical. As to conditions: 5 mM GSH; 0.02-0.14 mM CDNB; pH 7.0, 0.1 M sodium phosphate.

For 1 compound, Km results are on record in article PMC5920109, “Identification, Expression, and Regulation of an Omega Class Glutathione S-transferase in Rhopalosiphum padi (L.) (Hemiptera: Aphididae) Under Insecticide Stress” (Frontiers in Physiology, 2018).

Each structure is given as a SMILES string.

Usually Km stands for the substrate concentration at which the rate is half of its maximum. As to `O=[N+]([O-])c1ccc(Cl)c([N+](=O)[O-])c1` [CDNB, 1-chloro-2,4-dinitrobenzene], the Km came out at 120 µM.
